Measurements from US10821115B2, “Compounds that inhibit Mcl-1 protein” (priority 2017, dated 2020).
Like-named read-outs stand apart in the source and are kept apart here.

Key:
[1] = system: human multiple myeloma cell line, OPM-2; test: Cell viability assay (OPM-2 10 FBS), CellTiter-Glo; type: cell-based
Procedure, shortened: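 Serially diluted test compounds are incubated 16 h with cells (3000/well) in RPMI 1640 supplemented with 10% FBS. Viability is then measured by luminescence and IC50 calculated by 4-parameter logistic fit.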

[2] = biological target: recombinant human Mcl-1 (residues 171-327) / Bim interaction (Homo sapiens (Human), UniProt Q07820); test: biochemical; type: binding; settings: read-out: Mcl-1 HTRF IC50
Sequence of recombinant human Mcl-1 (residues 171-327) / Bim interaction (Q07820 171-327): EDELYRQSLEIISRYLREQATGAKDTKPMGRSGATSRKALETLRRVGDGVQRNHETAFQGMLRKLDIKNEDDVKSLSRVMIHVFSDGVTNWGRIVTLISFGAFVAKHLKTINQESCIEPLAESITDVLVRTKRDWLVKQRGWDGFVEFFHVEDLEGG

[3] = Homo sapiens, OPM-2, 16 h, read-out: OPM-2 10% FBS IC50 IP, OPM-2 cells, 10% FBS, 16 h, CellTiter-Glo
[4] = TR-FRET, Mcl-1(171-327) / biotin-Bim (51-76)
[5] = read-out: OPM-2 10% FBS IC50 IP, OPM-2 cells, 10% FBS, 16 h, CellTiter-Glo
[6] = Homo sapiens, OPM-2, 16 h, read-out: OPM-2 10% FBS IC50 IP, OPM-2 cells, 10% FBS, 16 h incubation
[7] = 0.1 nM Mcl-1(171-327), 0.05 nM biotin-Bim (51-76)
[8] = read-out: OPM-2 10% FBS IC50 IP, OPM-2 cells, 10% FBS, 16 h incubation

| SMILES | IC50 [1, 3] | IC50 [2, 4] | IC50 [2, 7] | also measured |
| --- | --- | --- | --- | --- |
| Cc1ccc([C@@]2(O)/C=C/C[C@H](C)[C@@H](C)S(=O)(=O)NC(=O)c3ccc4c(c3)N(C[C@@H]3CC[C@H]32)C[C@@]2(CCCc3cc(Cl)ccc32)CO4)cn1 [Example 100407, (1S,3′R,6′R,7′R,8′E,11′S,12′R)-6-chloro-7′-hydroxy-11′,12′-dimethyl-7′-(6-methyl-3-pyridinyl)-3,4-dihydro-2H,15′H-spiro[naphthalene-1,22′-[20]oxa[13]thia[1,14]diazatetracyclo [14.7.2.0~3,6~.0~19,24~]pentacosa[8,16,18,24]tetraen]-15′-one 13′,13′-dioxide] | 516 nM | 0.278 nM |  |  |
| C[C@@H]1[C@@H](C)C/C=C/[C@](O)(Cc2ccnc(C#N)c2)[C@@H]2CC[C@H]2CN2C[C@@]3(CCCc4cc(Cl)ccc43)COc3ccc(cc32)C(=O)NS1(=O)=O [Example 100187, 4-(((1S,3′R,6′R,7′R,8′E,11′S,12′R)-6-chloro-7′-hydroxy-11′,12′-dimethyl-13′,13′-dioxido-15′-oxo-3,4-dihydro-2H-spiro[naphthalene-1,22′-[20]oxa[13]thia[1,14]diazatetracyclo [14.7.2.0~3,6~.0~19,24~]pentacosa[8,16,18,24]tetraen]-7′-yl)methyl)-2-pyridinecarbonitrile] |  | 2.76 nM |  | IC50 [1, 5]: 3110 nM |
| CO[C@@]1(Cc2nc(C)co2)/C=C/C[C@H](C)[C@@H](C)S(=O)(=O)NC(=O)c2ccc3c(c2)N(C[C@@H]2CC[C@H]21)C[C@@]1(CCCc2cc(Cl)ccc21)CO3 [Example 100527, (1S,3′R,6′R,7′S,8′E,11′S,12′R)-6-chloro-7′-methoxy-11′,12′-dimethyl-7′-((4-methyl-1,3-oxazol-2-yl)methyl)-3,4-dihydro-2H,15′H-spiro[naphthalene-1,22′-[20]oxa[13]thia[1,14]diazatetracyclo [14.7.2.0~3,6~.0~19,24~]pentacosa[8,16,18,24]tetraen]-15′-one 13′,13′-dioxide] | 3570 nM | 3.6 nM |  |  |
| CO[C@]1(CCN2CCN(C)C(=O)C2)/C=C/C[C@H](C)[C@@H](C)S(=O)(=O)NC(=O)c2ccc3c(c2)N(C[C@@H]2CC[C@H]21)C[C@@]1(CCCc2cc(Cl)ccc21)CO3 [Example 100415, (1S,3′R,6′R,7′R,8′E,11′S,12′R)-6-chloro-7′-methoxy-11′,12′-dimethyl-7′-(2-(4-methyl-3-oxo-1-piperazinyl)ethyl)-3,4-dihydro-2H,15′H-spiro[naphthalene-1,22′-[20]oxa[13]thia[1,14]diazatetracyclo [14.7.2.0~3,6~.0~19,24~]pentacosa[8,16,18,24]tetraen]-15′-one 13′,13′-dioxide] | 2280 nM | 1.95 nM |  |  |
| C[C@@H]1[C@@H](C)CCC[C@@](O)(CCN2CCOCC2)[C@@H]2CC[C@H]2CN2C[C@@]3(CCCc4cc(Cl)ccc43)COc3ccc(cc32)C(=O)NS1(=O)=O [Example 100095, (1S,3′R,6′R,7′R,11′S,12′R)-6-chloro-7′-hydroxy-11′,12′-dimethyl-7′-(2-(4-morpholinyl)ethyl)-3,4-dihydro-2H,15′H-spiro[naphthalene-1,22′-[20]oxa[13]thia[1,14]diazatetracyclo [14.7.2.0~3,6~.0~19,24~]pentacosa[16,18,24]trien]-15′-one 13′,13′-dioxide] |  | 0.148 nM |  | IC50 [1, 5]: 113 nM |
| CC[C@@H]1CCCC[C@@](O)(CO)[C@@H]2CC[C@H]2CN2C[C@@]3(CCCc4cc(Cl)ccc43)COc3ccc(cc32)C(=O)NS1(=O)=O [Example 100035, (1S,3′R,6′R,7′S,12′R)-6-chloro-12′-ethyl-7′-hydroxy-7′-(hydroxymethyl)-3,4-dihydro-2H,15′H-spiro[naphthalene-1,22′-[20]oxa[13]thia[1,14]diazatetracyclo [14.7.2.0~3,6~.0~19,24~]pentacosa[16,18,24]trien]-15′-one 13′,13′-dioxide] | 1470 nM | 0.601 nM |  |  |
| COC[C@]1(OC)CCC[C@H](C)[C@@H](C)S(=O)(=O)NC(=O)c2ccc3c(c2)N(C[C@@H]2CC[C@H]21)C[C@@]1(CCCc2cc(Cl)ccc21)CO3 [Example 100189, (1S,3′R,6′R,7′S,11′S,12′R)-6-chloro-7′-methoxy-7′-(methoxymethyl)-11′,12′-dimethyl-3,4-dihydro-2H,15′H-spiro[naphthalene-1,22′-[20]oxa[13]thia[1,14]diazatetracyclo [14.7.2.0~3,6~.0~19,24~]pentacosa[16,18,24]trien]-15′-one 13′,13′-dioxide] | 701 nM | 0.82 nM |  |  |
| CO[C@]1(CN2C[C@@H](C)N(C(C)C)[C@@H](C)C2)/C=C/C[C@H](C)[C@@H](C)S(=O)(=O)NC(=O)c2ccc3c(c2)N(C[C@@H]2CC[C@H]21)C[C@@]1(CCCc2cc(Cl)ccc21)CO3 [Example 328, (1S,3′R,6′R,7′R,8′E,11′S,12′R)-6-chloro-7′-(((3R,5S)-3,5-dimethyl-4-(1-methylethyl)-1-piperazinyl)methyl)-7′-methoxy-11′,12′-dimethyl-3,4-dihydro-2H,15′H-spiro[naphthalene-1,22′-[20]oxa[13]thia[1,14]diazatetracyclo [14.7.2.0~3,6~.0~19,24~]pentacosa[8,16,18,24]tetraen]-15′-one 13′,13′-dioxide] |  |  | 0.087 nM | IC50 [1, 6]: 48 nM |
| CO[C@]1(CN2CCN3CC[C@H](F)C[C@@H]3C2)/C=C/C[C@H](C)[C@@H](C)S(=O)(=O)NC(=O)c2ccc3c(c2)N(C[C@@H]2CC[C@H]21)C[C@@]1(CCCc2cc(Cl)ccc21)CO3 (single isomer, unassigned) [Example 326] |  |  | 0.307 nM | IC50 [1, 8]: 488 nM |
| C=CC[C@@]1(O)/C=C/C[C@H](C)[C@@H](C)S(=O)(=O)NC(=O)c2ccc3c(c2)N(C[C@@H]2CC[C@H]21)C[C@@]1(CCCc2cc(Cl)ccc21)CO3 [Example 100130, (1S,3′R,6′R,7′R,8′E,11′S,12′R)-6-chloro-7′-hydroxy-11′,12′-dimethyl-7′-(2-propen-1-yl)-3,4-dihydro-2H,15′H-spiro[naphthalene-1,22′-[20]oxa[13]thia[1,14]diazatetracyclo [14.7.2.0~3,6~.0~19,24~]pentacosa[8,16,18,24]tetraen]-15′-one 13′,13′-dioxide] |  | 2.69 nM |  | IC50 [1, 5]: 2170 nM |
| CO[C@]1(CN2C[C@H]3C[C@@H]2CN3C(C)C)/C=C/C[C@H](C)[C@@H](C)S(=O)(=O)NC(=O)c2ccc3c(c2)N(C[C@@H]2CC[C@H]21)C[C@@]1(CCCc2cc(Cl)ccc21)CO3 [Example 314, (1S,3′R,6′R,7′R,8′E,11′S,12′R)-6-chloro-7′-methoxy-11′,12′-dimethyl-7′-(((1R,4R)-5-(1-methylethyl)-2,5-diazabicyclo[2.2.1]hept-2-yl)methyl)-3,4-dihydro-2H,15′H-spiro[naphthalene-1,22′-[20]oxa[13]thia[1,14]diazatetracyclo [14.7.2.0~3,6~.0~19,24~]pentacosa[8,16,18,24]tetraen]-15′-one 13′,13′-dioxide] |  |  | 0.118 nM | IC50 [1, 6]: 126 nM |
| CO[C@]1(CN2CCN3CCC[C@@H]3C2)/C=C/C[C@H](C)[C@@H](C)S(=O)(=O)NC(=O)c2ccc3c(c2)N(C[C@@H]2CC[C@H]21)C[C@@]1(CCCc2cc(Cl)ccc21)CO3 [Example 83] |  |  | 0.223 nM | IC50 [1, 8]: 245 nM |
| CO[C@@]1(CC(=O)O)/C=C/C[C@H](C)[C@@H](C)S(=O)(=O)NC(=O)c2ccc3c(c2)N(C[C@@H]2CC[C@H]21)C[C@@]1(CCCc2cc(Cl)ccc21)CO3 [Example 100307, ((1S,3′R,6′R,7′S,8′E,11′S,12′R)-6-chloro-7′-methoxy-11′,12′-dimethyl-13′,13′-dioxido-15′-oxo-3,4-dihydro-2H-spiro[naphthalene-1,22′-[20]oxa[13]thia[1,14]diazatetracyclo [14.7.2.0~3,6~.0~19,24~]pentacosa[8,16,18,24]tetraen]-7′-yl)acetic acid] | 1030 nM | 0.049 nM |  |  |
| C[C@@H]1[C@@H](C)CCC[C@@](O)(CCN2CCOCC2)[C@@H]2CC[C@H]2CN2C[C@@]3(CCCc4cc(Cl)ccc43)COc3ccc(cc32)C(=O)NS1(=O)=O [Example 100096, (1S,3′R,6′R,7′R,11′S,12′R)-6-chloro-7′-hydroxy-11′,12′-dimethyl-7′-(2-(4-morpholinyl)ethyl)-3,4-dihydro-2H,15′H-spiro[naphthalene-1,22′-[20]oxa[13]thia[1,14]diazatetracyclo [14.7.2.0~3,6~.0~19,24~]pentacosa[16,18,24]trien]-15′-one 13′,13′-dioxide] |  | 0.624 nM |  | IC50 [1, 5]: 517 nM |
| CO[C@@]1(CN2CCN3CCS(=O)(=O)C[C@@H]3C2)/C=C/C[C@H](C)[C@@H](C)S(=O)(=O)NC(=O)c2ccc3c(c2)N(C[C@@H]2CC[C@H]21)C[C@@]1(CCCc2cc(Cl)ccc21)CO3 (single isomer, unassigned) [Example 231] |  |  | 0.061 nM | IC50 [1, 8]: 98 nM |
| CO[C@@]1(CN2CC(N3CCOCC3)C2)/C=C/C[C@H](C)[C@@H](C)S(=O)(=O)NC(=O)c2ccc3c(c2)N(C[C@@H]2CC[C@H]21)C[C@@]1(CCCc2cc(Cl)ccc21)CO3 [Example 258, (1S,3′R,6′R,7′S,8′E,11′S,12′R)-6-chloro-7′-methoxy-11′,12′-dimethyl-7′-((3-(4-morpholinyl)-1-azetidinyl)methyl)-3,4-dihydro-2H,15′H-spiro[naphthalene-1,22′-[20]oxa[13]thia[1,14]diazatetracyclo [14.7.2.0~3,6~.0~19,24~]pentacosa[8,16,18,24]tetraen]-15′-one 13′,13′-dioxide] |  |  | 0.069 nM | IC50 [1, 6]: 95 nM |
